Source: patent US20260139006A1, “CYCLIC PEPTIDE AS INHIBITORS OF FREE-LIVING AMOEBA” (Purdue Research Foundation, priority 2024, published 2026)

Test: Mammalian cytotoxicity counter screening (CellTiter-Glo)
Assay type: cell-based
Conditions: human; read-out: A549 IC50 (cytotoxicity)
Protocol: Cytotoxicity of the cyclic peptides was also determined by using the CellTiter-Glo 2.0® assay on A549 human lung carcinoma cells. A549 cells were seeded at a concentration of 1.6×10^4 cells/mL in 96-well plates in the presence of serially diluted compounds, as described above. DMSO (1%) and 100 μM of chlorhexidine were used as the negative and positive controls. A549 were grown in F12K medium supplemented with 10% FBS and 1% penicillin/streptomycin antibiotics. […] The total volume of each well was 100 μL, containing 10 μL compounds and 90 μL cells, and plates were incubated at 37° C., 5% CO2 for 72 hours. At the 72-hours time point, CellTiter-Glo 2.0 Reagent® was added to all the wells and read by the SpectraMax® i3X plate reader as described above. Curve fitting using non-linear regression was carried out using the average of replicates and the Levenberg-Marquardt algorithm, using DMSO as the normalization control, as defined in CDD Vault. The selectivity index (SI) was calculated by using the equation: SI=(IC50 of A549's)/(IC50 of Balamuthia mandrillaris) to determine the specificity of inhibitors.

N=C(N)c1ccc(OCCCCCOc2ccc(C(=N)N)cc2)cc1 [pentamidine]
IC50 at 72 h: 12.8 µM
